In patent publication US9133201B2, “Inhibitors of Bruton's tyrosine kinase” (Pharmacyclics, Inc., priority 2006, dated 2015):

Experiments:
[1] = biological target: Btk (Homo sapiens (Human), UniProt Q06187); assay: Btk acellular kinase assay (TR-FRET)
[2] = test system: DHL-6 cells; assay: Growth of DHL-6 cells (Alamar Blue); format: cell-based; details: 24 h or 48 h treatment

Sequence of Btk (Q06187 whole entry): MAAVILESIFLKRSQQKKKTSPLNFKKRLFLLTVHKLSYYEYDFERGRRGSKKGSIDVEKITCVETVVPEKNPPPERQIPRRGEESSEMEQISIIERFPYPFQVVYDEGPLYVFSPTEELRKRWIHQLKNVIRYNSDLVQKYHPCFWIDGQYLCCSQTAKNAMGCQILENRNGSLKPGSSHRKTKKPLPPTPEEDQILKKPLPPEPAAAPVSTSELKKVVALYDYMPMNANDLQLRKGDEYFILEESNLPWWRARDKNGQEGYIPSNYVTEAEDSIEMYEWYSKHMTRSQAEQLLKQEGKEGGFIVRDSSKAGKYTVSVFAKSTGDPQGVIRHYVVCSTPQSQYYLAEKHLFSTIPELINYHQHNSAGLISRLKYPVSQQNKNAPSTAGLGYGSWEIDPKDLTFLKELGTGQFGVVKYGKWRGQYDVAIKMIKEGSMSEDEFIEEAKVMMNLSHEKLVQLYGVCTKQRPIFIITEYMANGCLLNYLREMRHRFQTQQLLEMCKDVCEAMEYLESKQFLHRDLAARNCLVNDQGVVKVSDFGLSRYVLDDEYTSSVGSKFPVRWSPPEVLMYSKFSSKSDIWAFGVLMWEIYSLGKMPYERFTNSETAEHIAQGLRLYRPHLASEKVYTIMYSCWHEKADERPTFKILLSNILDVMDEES

Row | SMILES | fold less potent than compound 4 ([1]; Btk potency) [fold] | growth of DHL-6 cells [2] | IC50 ([1]; read-out: Btk IC50, acellular TR-FRET kinase assay, [ATP]=Km) [nM]
1 | C/C=C/C(=O)N1CCCC(n2nc(-c3ccc(Oc4ccccc4)cc3)c3c(N)ncnc32)C1 (stereo not drawn) [Compound 5, (E)-1-(3-(4-amino-3-(4-phenoxyphenyl)-1H-pyrazolo[3,4-d]pyrimidin-1-yl)piperidin-1-yl)but-2-en-1-one] | 28 | – | –
2 | CN(C)C/C=C/C(=O)N1CCC[C@@H](n2nc(-c3ccc(Oc4ccccc4)cc3)c3c(N)ncnc32)C1 [Compound 15, (E)-1-(3-(4-amino-3-(4-phenoxyphenyl)-1H-pyrazolo[3,4-d]pyrimidin-1-yl)piperidin-1-yl)-4-(dimethylamino)but-2-en-1-one] | – | inhibit growth | 2.5
